{
  "source": "patent US20140142055A1",
  "about": "“METHODS OF TREATING RECURRENT MEIBOMIAN GLANDS DISORDER AND THEREBY DECREASING THE FREQUENCY OF RECURRENCE” (INSITE VISION CORPORATION, priority 2011, published 2014)",
  "assay": "Release of fluorometholone from the gelled aqueous polymer suspension in the rabbit eye, measured in the aqueous humor",
  "format": "in vivo",
  "details": "topical sustained-release aqueous suspension of lightly cross-linked carboxyl-containing polymer",
  "method": "The viscous gels that result from fluid eye drops delivered by means of the aqueous suspensions have residence times in the eye ranging from about 2 to about 12 hours, e.g., from about 3 to about 6 hours. The active ingredients contained in these ophthalmically acceptable vehicles can be released from the gels at rates that depend on such factors as the active ingredient itself and its physical form, the extent of drug loading and the pH of the system, as well as on any drug delivery adjuvants, such as ion exchange resins compatible with the ocular surface, which can also be present.",
  "data": [
    {"smiles": "CC(=O)[C@@]1(O)CC[C@H]2[C@@H]3C[C@H](C)C4=CC(=O)C=C[C@]4(C)[C@@]3(F)[C@@H](O)C[C@@]21C", "note": "[fluorometholone]", "values": [
      {"measurement": "release rates in the rabbit eye, as measured by fluorometholone contained in the aqueous humor", "result": "in excess of four hours"}
    ]}
  ]
}
